Measured values as given in patent publication US8217045B2, “Organic compounds” (Novartis AG, priority 2007, dated 2012).

Columns and labels:
c-Abl (His-cAbl) = target: T1, c-Abl (His-cAbl) (Homo sapiens, UniProt P00519); assay: in vitro enzyme assay, wild-type Abl catalysed phosphorylation; assay type: biochemical; conditions: 16 nM His-cAbl, 10 μM ATP, 1 hour at 30° C.; read-out: IC50, inhibition of wild-type Abl catalysed phosphorylation
T1 construct: The His-tagged kinase domain of Abl is cloned and expressed; His tag; made in house; host or cells: baculovirus/Sf9
T1 sequence (P00519 242-493 limits assumed): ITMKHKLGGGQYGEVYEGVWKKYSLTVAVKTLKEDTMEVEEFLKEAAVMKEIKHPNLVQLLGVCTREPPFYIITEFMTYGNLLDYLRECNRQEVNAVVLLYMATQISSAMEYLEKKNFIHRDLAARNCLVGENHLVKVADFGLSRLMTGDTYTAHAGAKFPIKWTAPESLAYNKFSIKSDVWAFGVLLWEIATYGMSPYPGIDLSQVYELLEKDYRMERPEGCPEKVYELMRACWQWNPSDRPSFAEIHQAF
Protocol: Test for activity against wild-type and mutant Abl protein tyrosine kinase:
The test, an in vitro enzyme assay, is conducted as a filter binding assay as follows: The His-tagged kinase domain of Abl is cloned and expressed in the baculovirus/Sf9 system as described by Bhat et al., J. Biol. Chem. 1997; 272:16170-16175. A protein of 37 kD (Abl kinase) is purified by a two-step procedure over a Cobalt metal chelate column followed by an anion exchange column with a yield of 1-2 mg/L of Sf9 cells. The purity of the Abl kinase is >90% as judged by SDS-PAGE after Coomassie blue staining.
Based on the optimized assay conditions for the individual kinases a specific assay set-up was chosen. The assays were prepared and incubated on a liquid handling robot system using 384-well plates. To the assay plates containing 50 nL compound or control solutions, 4.5 μL of solution A consisting of the peptide substrate and ATP in assay buffer were added. The reactions were initiated by adding 4.5 μL of solution B consisting of the respective kinase in assay buffer. The reactions were incubated for 1 hour at 30° C. in a final reaction volume of 9.05 μL. Based on a generic assay buffer (50 mM HEPES pH7.5, 1 mM DTT, 0.02% Tween20, 0.02% BSA), following components were added depending on the chosen kinase: • c-Abl: 16 nM His-cAbl, 5 μM peptide substrate (FITC-Ahx-EAIYAAPFAKKK-CONH2), 10 mM MgCl2, 10 μM ATP • c-Abl-T315I: 2.4 nM His-cAbl-T315I, 5 μM peptide substrate (FITC-Ahx-EAIYAAPFAKKK-CONH2), 10 mM MgCl2, 10 μM ATP
After incubation, the kinase reactions were stopped by the addition of 16 μL of stop solution (100 mM HEPES, 5% DMSO, 0.1% Coating reagent, 10 mM EDTA, 0.015% Brij 35). Subsequently, the assay plates were transferred to a Caliper LabChip3000 reader and the unphosphorylated substrate and the phosphorylated product were separated and quantitated in a microfluidic chip.

Bcr-Abl = Bcr-Abl (Homo sapiens, UniProt P00519); assay: Bcr-Abl phosphorylation capture ELISA in 32D-Bcr-Abl cells; assay type: cell-based, murine; conditions: 90 min at 37° C., read-out: IC50, reduction of Bcr-Abl phosphorylation
Source text: 32D cl3 cells are obtained from the American Type Culture Collection (ATCC CRL11346) and Ba/F3 cells are obtained from the German Collection of Microorganisms and Cell Cultures (DSMZ, Braunschweig and DSMZ No. ACC 300) Palacios et al., Nature, 1984; 309:126 and Palacios et al., Cell, 1985:41:72.
Oncogene 1996; 12: 839-46; and Okuda K, Golub T R, Gilliland D G, Griffin J D. p210BCR-ABL, p190BCR-ABL, and TEL/ABL activate similar signal transduction pathways in hematopoietic cell lines. Oncogene 1996; 13:1147-52.)
The cells express the fusion Bcr-Abl protein with a constitutively active Abl kinase and proliferate growth factor independent. The cells are expanded in RPMI 1640 (AMIMED), 10% fetal calf serum (FCS), 2 mM glutamine (Gibco) (“complete medium”), and a working stock is prepared by freezing aliquots of 2×10^6 cells per vial in freezing medium (95% FCS, 5% DMSO (SIGMA)). After thawing, the cells are used during maximally 10-12 passages for the experiments. The antibody anti-Abl SH3 domain cat. #06-466 from Upstate Biotechnology is used for the ELISA. For detection of Bcr-Abl phosphorylation, the anti-phosphotyrosine antibody Ab PY20, labelled with alkaline phosphatase ([…]) from ZYMED (cat. #03-7722) is used. […]

Bcr-Abl, sequence (P00519 with tags, fused parts or gaps): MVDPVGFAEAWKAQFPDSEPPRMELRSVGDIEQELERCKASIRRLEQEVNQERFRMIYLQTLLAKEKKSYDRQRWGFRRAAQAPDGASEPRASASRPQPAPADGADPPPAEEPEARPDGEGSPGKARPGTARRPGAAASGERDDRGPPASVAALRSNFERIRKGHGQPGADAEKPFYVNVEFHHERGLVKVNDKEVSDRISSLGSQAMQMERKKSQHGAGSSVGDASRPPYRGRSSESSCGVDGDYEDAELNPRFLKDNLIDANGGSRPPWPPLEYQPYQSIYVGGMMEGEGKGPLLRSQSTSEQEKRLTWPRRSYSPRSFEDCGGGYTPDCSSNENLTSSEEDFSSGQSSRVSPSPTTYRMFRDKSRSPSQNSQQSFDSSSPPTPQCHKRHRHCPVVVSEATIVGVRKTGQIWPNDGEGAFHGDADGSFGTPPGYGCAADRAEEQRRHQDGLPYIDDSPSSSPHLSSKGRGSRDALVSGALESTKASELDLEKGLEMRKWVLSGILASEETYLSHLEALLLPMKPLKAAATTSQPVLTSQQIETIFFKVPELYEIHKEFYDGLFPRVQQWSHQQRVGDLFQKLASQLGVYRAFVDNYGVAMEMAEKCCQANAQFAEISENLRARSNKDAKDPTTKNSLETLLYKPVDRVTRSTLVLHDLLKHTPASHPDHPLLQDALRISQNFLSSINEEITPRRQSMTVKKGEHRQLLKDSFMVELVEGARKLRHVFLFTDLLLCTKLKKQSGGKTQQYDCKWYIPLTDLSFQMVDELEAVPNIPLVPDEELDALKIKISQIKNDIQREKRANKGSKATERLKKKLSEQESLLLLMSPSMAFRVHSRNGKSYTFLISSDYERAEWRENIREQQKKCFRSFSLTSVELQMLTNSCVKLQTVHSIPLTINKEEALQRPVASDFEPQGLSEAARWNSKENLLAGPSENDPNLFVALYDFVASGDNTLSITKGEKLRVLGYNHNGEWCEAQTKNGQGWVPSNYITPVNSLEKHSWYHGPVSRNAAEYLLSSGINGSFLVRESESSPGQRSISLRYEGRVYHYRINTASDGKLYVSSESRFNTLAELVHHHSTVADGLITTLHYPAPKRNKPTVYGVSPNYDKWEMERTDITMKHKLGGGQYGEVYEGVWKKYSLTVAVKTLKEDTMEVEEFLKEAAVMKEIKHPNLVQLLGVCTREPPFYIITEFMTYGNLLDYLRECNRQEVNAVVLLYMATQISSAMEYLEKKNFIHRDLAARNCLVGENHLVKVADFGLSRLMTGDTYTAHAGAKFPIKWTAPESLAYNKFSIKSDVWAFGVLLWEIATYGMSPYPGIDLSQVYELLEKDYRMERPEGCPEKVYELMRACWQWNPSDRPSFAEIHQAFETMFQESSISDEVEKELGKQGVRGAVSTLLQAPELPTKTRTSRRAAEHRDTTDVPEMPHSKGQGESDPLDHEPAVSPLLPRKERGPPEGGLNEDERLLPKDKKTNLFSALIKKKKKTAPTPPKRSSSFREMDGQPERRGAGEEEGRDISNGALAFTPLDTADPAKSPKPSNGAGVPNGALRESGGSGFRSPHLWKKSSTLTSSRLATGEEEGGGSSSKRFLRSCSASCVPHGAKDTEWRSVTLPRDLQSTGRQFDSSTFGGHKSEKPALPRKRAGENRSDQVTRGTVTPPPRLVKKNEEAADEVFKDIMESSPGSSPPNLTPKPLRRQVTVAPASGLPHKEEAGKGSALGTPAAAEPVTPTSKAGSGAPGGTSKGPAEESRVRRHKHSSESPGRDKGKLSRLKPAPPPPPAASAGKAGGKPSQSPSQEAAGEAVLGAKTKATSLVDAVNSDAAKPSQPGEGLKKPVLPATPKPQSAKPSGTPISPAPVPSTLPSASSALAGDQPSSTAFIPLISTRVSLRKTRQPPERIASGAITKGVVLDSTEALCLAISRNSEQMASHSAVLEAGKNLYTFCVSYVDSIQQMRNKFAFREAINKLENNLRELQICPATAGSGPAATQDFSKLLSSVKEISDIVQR

O=C(Nc1cc(N2CCNCC2)cc(C(F)(F)F)c1)c1cccc2cc(Oc3ccnc(NC(=O)C4CC4)c3)ccc12 [Example 10, 6-[[2-(Cyclopropanecarbonyl-amino)-pyridin-4-yl]oxy]-naphthalene-1-carboxylic acid (3-piperazin-1-yl-5-trifluoromethyl-phenyl)-amide]
IC50 (c-Abl (His-cAbl)): < 5 nM | IC50 (Bcr-Abl): 101 to 370 nM
